Source: patent US20120058997A1, “IMIDAZO[1,2-B]PYRIDAZINE AND PYRAZOLO[1,5-A]PYRIMIDINE DERIVATIVES AND THEIR USE AS PROTEIN KINASE INHIBITORS” (SuperGen, Inc., priority 2006, published 2012)
Like-named read-outs stand apart in the source and are kept apart here.

What was measured:
CDK1 = CDK1 (Homo sapiens, UniProt P06493); experiment: Radiometric kinase panel selectivity assay; assay type: biochemical; parameters: dose or concentration left out as unconfirmed
K562 Cells = experiment: Cell growth inhibition, Cell-Titer-Glo, 96 hours; assay type: cell-based; settings: Homo sapiens, read-out: IC50 (K562);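 further: luminescent ATP signal as an index of viable cell number, drug-treated versus cells given an equal volume of DMSO vehicle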
Able = Able (Homo sapiens, UniProt P00519); experiment: Radiometric kinase panel selectivity assay; assay type: biochemical; parameters: dose or concentration left out as unconfirmed
Chain of Able (P00519 whole entry): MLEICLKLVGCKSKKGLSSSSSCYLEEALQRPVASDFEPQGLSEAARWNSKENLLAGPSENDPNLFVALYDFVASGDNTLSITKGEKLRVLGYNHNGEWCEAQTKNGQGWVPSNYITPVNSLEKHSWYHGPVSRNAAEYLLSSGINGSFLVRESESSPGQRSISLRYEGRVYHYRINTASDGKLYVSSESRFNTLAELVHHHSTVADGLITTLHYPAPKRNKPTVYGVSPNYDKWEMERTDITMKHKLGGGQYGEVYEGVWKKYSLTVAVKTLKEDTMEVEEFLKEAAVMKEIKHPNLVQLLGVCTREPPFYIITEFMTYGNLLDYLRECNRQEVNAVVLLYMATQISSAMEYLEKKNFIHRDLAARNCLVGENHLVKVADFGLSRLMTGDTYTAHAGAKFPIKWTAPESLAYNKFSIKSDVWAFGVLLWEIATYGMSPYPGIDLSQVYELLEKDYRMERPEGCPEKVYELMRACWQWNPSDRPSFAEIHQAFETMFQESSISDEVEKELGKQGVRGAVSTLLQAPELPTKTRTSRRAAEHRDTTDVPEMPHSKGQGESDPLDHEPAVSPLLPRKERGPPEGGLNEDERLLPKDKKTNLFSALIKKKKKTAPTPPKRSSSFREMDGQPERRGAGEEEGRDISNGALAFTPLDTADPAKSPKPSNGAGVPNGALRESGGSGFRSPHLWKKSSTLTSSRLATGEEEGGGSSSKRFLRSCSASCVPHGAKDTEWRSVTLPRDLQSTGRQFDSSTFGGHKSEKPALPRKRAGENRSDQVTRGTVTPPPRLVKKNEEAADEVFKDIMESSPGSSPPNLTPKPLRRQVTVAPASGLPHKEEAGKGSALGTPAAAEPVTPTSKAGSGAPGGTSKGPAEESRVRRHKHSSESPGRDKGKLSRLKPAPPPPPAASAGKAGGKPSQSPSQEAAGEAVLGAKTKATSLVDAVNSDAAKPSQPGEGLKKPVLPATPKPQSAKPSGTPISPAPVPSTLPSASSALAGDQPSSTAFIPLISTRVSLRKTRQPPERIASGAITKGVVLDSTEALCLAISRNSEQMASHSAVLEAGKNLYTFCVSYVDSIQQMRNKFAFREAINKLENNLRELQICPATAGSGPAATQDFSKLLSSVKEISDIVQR

Plk3 = Plk3 (Homo sapiens, UniProt Q9H4B4); experiment: Radiometric kinase panel selectivity assay; assay type: biochemical; parameters: dose or concentration left out as unconfirmed
Chain of Plk3 (Q9H4B4 whole entry, species assumed): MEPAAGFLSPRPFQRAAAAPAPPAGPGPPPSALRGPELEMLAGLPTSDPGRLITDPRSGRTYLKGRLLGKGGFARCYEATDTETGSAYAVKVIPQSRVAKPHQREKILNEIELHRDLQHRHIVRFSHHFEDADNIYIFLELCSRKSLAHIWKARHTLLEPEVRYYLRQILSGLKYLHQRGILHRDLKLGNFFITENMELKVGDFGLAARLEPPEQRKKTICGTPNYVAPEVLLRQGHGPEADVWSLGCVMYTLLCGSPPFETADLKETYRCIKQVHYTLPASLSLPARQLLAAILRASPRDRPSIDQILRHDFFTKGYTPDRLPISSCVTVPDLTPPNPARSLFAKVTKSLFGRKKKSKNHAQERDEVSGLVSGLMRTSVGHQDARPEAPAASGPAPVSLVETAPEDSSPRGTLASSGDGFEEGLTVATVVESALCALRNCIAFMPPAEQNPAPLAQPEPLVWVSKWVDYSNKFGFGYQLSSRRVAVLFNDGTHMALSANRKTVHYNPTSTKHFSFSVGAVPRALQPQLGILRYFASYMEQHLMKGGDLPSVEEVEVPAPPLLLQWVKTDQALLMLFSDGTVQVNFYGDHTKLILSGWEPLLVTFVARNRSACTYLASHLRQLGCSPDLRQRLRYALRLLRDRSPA

Jak2 = Jak2 (Homo sapiens, UniProt O60674); experiment: Radiometric kinase panel selectivity assay; assay type: biochemical; parameters: dose or concentration left out as unconfirmed
CDK2 = CDK2 (Homo sapiens, UniProt P24941); experiment: Radiometric kinase panel selectivity assay; assay type: biochemical; parameters: dose or concentration left out as unconfirmed
Nek2 = molecular target: T1, Nek2 (Homo sapiens, UniProt P51955); experiment: Radiometric kinase panel selectivity assay; assay type: biochemical; parameters: dose or concentration left out as unconfirmed
T1 sequence (P51955 1-445): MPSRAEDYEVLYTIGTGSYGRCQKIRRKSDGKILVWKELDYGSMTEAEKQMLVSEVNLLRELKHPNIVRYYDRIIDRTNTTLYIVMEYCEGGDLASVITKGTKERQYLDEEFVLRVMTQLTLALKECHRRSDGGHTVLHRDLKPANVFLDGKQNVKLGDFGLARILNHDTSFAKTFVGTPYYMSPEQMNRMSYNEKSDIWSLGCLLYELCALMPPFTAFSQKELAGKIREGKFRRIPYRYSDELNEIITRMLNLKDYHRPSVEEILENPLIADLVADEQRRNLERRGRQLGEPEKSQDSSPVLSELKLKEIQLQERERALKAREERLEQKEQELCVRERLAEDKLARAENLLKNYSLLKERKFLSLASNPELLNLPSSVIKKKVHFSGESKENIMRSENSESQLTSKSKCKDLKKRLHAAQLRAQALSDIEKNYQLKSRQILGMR

EGFR = EGFR (Homo sapiens, UniProt P00533); experiment: Radiometric kinase panel selectivity assay; assay type: biochemical; parameters: dose or concentration left out as unconfirmed
Chain of EGFR (P00533 25-1210, species assumed): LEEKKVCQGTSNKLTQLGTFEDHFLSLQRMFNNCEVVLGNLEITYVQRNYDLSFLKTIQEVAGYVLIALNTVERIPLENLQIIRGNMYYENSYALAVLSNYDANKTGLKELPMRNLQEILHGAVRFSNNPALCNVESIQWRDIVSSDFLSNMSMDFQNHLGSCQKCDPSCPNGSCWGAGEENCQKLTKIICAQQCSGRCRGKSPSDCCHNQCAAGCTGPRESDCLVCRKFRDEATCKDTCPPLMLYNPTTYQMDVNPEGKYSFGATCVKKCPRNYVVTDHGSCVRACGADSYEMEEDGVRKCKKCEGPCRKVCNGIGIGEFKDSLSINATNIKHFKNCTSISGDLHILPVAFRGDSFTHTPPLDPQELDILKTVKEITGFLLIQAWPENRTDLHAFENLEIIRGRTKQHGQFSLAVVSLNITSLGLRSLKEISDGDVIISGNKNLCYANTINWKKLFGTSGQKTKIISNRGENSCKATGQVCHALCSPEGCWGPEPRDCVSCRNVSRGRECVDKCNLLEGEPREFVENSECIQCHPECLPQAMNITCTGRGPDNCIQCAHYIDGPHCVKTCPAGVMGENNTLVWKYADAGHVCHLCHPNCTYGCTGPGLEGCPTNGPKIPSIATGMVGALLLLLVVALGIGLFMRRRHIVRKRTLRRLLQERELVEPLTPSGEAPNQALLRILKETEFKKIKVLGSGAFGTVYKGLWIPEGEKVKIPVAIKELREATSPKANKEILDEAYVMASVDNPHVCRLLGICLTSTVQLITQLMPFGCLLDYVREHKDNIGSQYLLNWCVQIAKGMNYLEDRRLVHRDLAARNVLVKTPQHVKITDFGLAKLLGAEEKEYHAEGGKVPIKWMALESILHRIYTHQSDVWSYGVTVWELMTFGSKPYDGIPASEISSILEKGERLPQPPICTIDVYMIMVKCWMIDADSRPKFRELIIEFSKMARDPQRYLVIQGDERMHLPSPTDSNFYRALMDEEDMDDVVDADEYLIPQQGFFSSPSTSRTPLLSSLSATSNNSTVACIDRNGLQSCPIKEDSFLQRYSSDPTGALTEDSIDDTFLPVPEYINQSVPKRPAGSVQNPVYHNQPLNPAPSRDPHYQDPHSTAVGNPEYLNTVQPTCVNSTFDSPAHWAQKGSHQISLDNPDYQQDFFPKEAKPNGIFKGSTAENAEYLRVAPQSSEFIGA

[1] = system: phospho-Bad (S112) in MV-4-11 cells; experiment: phospho-Bad (S112) Western blot in MV-4-11 cells; assay type: cell-based; settings: Homo sapiens, MV4-11, 1 hr treatment, HCl salts, read-out: EC50 on phosphorylation of Bad (S112)
Description: One illustrative manner to determine the effect of Pim-1 inhibitors on the activity of the Pim-1 kinase is to measure the phosphorylation levels of the protein Bad at serine residue 112 (S112) (phospho-Bad or pBad). Pim-1 is known to cause the phosphorylation of Bad at S112 in order to inactivate the protein and inhibit its association with anti-apoptotic Bcl-2 family members, thereby allowing these Bcl-2 family members to further inhibit apoptotic signals.
Briefly, MV-4-11 (biphenotypic B myelomonocytic leukemia) cells were plated into T25 flasks in serum free media (SFM) at 1.5×10^5 cells/ml and allowed to grow for 24 hrs. After 24 hrs Pim-1 inhibitors at 10, 5, 1, 0.5, 0.1, or 0.01 μM concentrations were added to individual flasks. Treatment with the Pim-1 inhibitors continued for a duration of 1 hr. Cells were harvested after the 1 hr treatment and cell lysates were made from each sample. Equal amounts of total protein from the lysates were loaded onto a 10% Tris-glycine gel (Invitrogen) for SDS-PAGE analysis. […] In order to calculate the EC50 of inhibitors on phosphorylation of Bad (S112), the levels of total Bad protein were determined. […] Densitometry was used to quantitate the levels of each band on the Western blots and used to determine the EC50 of the Pim-1 inhibitors to alter the phospho-Bad protein levels.

Aurora-A = molecular target: T2, Aurora-A (Homo sapiens, UniProt O14965); experiment: Radiometric kinase panel selectivity assay; assay type: biochemical; parameters: dose or concentration left out as unconfirmed
T2 sequence (O14965 1-403): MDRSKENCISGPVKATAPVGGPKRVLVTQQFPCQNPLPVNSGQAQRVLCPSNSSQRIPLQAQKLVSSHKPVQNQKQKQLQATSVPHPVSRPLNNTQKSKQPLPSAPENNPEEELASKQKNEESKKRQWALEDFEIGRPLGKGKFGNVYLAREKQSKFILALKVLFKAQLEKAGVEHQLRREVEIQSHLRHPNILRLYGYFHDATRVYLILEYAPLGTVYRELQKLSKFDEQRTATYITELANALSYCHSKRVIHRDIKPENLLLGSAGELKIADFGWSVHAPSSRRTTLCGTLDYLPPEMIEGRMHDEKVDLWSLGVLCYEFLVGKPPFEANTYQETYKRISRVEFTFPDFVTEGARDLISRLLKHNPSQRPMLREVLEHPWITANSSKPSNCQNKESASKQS

c-Kit = c-Kit (Homo sapiens, UniProt P10721); experiment: Radiometric kinase panel selectivity assay; assay type: biochemical; parameters: dose or concentration left out as unconfirmed
Chain of c-Kit (P10721 26-976): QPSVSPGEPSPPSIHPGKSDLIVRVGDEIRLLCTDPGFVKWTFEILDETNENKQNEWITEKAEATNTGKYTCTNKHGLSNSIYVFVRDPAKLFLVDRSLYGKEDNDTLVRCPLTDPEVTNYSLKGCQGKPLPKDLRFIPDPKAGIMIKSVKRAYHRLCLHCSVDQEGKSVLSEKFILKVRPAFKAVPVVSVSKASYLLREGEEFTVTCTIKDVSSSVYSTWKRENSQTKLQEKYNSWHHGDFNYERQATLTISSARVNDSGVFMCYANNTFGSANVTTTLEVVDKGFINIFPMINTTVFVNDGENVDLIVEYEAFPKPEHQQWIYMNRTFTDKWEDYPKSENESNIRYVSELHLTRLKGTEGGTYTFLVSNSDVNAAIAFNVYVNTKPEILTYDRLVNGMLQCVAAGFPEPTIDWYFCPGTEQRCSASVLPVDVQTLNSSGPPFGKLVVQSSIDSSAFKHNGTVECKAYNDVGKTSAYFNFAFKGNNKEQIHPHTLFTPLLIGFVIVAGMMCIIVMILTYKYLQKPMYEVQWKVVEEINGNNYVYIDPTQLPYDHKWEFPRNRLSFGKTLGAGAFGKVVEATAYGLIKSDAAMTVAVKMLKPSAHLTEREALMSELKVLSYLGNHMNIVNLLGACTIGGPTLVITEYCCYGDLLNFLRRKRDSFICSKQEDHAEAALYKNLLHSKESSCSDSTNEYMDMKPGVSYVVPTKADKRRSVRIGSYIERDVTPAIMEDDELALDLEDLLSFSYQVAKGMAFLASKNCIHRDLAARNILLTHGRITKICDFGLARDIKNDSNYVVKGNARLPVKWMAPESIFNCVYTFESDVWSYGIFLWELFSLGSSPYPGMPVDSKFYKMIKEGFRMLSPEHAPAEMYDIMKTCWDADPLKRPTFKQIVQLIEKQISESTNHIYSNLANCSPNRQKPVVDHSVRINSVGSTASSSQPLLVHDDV

PC-3 Cells = experiment: Cell growth inhibition, Cell-Titer-Glo, 96 hours; assay type: cell-based; settings: Homo sapiens, Table IX (results), read-out: IC50 (PC-3);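 further: luciferase luminescence reflecting cellular ATP, used as a proxy for cell number, with compound-treated cells compared against DMSO vehicle control wells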
Pim-1 kinase = Pim-1 kinase (Homo sapiens, UniProt P11309); experiment: Promega Kinase-Glo Pim-1 kinase inhibition assay; assay type: biochemical; settings: Table VIII (results); values in nM; read-out: IC50(Kinase);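 further: in vitro Pim-1 reaction run 2 h at 30 °C, then leftover ATP measured by luciferase luminescence, where signal falls as kinase activity rises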
Chain of Pim-1 kinase (P11309 whole entry): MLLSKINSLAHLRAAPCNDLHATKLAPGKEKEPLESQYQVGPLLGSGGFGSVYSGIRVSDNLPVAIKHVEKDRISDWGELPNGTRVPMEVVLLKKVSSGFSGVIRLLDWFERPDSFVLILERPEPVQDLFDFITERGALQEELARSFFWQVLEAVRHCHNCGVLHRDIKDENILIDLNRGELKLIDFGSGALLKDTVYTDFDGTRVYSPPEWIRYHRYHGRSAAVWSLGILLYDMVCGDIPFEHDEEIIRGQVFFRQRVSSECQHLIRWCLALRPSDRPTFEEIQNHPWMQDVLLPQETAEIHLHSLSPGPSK

Chain of CDK1 (P06493 whole entry, species assumed): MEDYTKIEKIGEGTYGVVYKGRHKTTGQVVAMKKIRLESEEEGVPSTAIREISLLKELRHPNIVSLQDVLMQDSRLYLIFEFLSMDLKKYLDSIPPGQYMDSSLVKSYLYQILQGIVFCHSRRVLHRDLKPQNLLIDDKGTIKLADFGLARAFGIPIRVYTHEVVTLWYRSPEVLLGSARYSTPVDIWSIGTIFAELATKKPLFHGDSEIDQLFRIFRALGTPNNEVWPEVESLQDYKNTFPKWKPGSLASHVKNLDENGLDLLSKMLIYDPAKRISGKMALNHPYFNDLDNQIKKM
Chain of CDK1 (P14635 whole entry partner, species assumed): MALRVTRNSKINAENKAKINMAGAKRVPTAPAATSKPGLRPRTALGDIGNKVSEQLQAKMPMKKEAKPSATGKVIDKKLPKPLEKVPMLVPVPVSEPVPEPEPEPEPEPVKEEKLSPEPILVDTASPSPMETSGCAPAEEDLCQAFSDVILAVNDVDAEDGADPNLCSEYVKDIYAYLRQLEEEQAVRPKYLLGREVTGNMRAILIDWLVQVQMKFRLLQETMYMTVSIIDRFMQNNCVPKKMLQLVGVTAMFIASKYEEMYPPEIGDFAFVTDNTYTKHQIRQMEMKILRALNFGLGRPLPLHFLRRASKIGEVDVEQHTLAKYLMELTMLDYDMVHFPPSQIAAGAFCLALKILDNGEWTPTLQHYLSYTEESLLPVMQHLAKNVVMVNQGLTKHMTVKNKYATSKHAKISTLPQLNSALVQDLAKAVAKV

IC50 (PC-3 Cells) [µM] | IC50 (K562 Cells; K562, Table IX (results)) [µM] | IC50 (Pim-1 kinase) [nM] | SMILES | activity against CDK1 (CDK1) | IC50 (K562 Cells; Table IX (results)) [µM] | activity against Able (Able) | activity against Plk3 (Plk3) | activity against Jak2 (Jak2) | activity against CDK2 (CDK2) | activity against Nek2 (Nek2) | activity against EGFR (EGFR) | EC50 [1] [µM] | activity against Aurora-A (Aurora-A) | activity against c-Kit (c-Kit)
– | 5.84 | 293 | CC[C@H](N)COc1ccc2ncc(-c3cccc(OC(F)(F)F)c3)n2n1 [Compound 7-19, (S)-1-(3-(3-(trifluoromethoxy)phenyl)imidazo[1,2-b]pyridazin-6-yloxy)butan-2-amine] | – | – | – | – | – | – | – | – | 0.635 | – | –
7.21 | 1.73 | 272 | Cc1cc2ncc(-c3cccc(OC(F)(F)F)c3)n2nc1OCC1CCN(C)CC1 [Compound 7-34, 7-methyl-6-((1-methylpiperidin-4-yl)methoxy)-3-(3(trifluoromethoxy)phenyl) imidazo[1,2-b]pyridazine] | – | – | – | – | – | – | – | – | – | – | –
33.3 | 6.91 | 73 | O=C(C1CC1)N1CCC(CNc2ccc3ncc(-c4cccc(OC(F)(F)F)c4)n3n2)CC1 [Compound 7-36, Cyclopropyl(4-((3-(3-(trifluoromethoxy)phenyl)imidazo[1,2-b]pyridazin-6-ylamino)methyl)piperidin-1-yl)methanone] | – | – | – | – | – | – | – | – | – | – | –

SMILES | IC50 (PC-3 Cells) [µM] | IC50 (K562 Cells; K562, Table IX (results)) [µM] | IC50 (Pim-1 kinase) [nM] | activity against CDK1 (CDK1) | IC50 (K562 Cells; Table IX (results)) [µM] | activity against Able (Able) | activity against Plk3 (Plk3) | activity against Jak2 (Jak2) | activity against CDK2 (CDK2) | activity against Nek2 (Nek2) | activity against EGFR (EGFR) | EC50 [1] [µM] | activity against Aurora-A (Aurora-A) | activity against c-Kit (c-Kit)
CN1CCC(CNc2ccc3ncc(-c4cccc(OC(F)(F)F)c4)n3n2)CC1 [Compound 7-29] | 4.83 | – | – | no significant activity | 2.29 | no significant activity | no significant activity | no significant activity | no significant activity | no significant activity | no significant activity | 0.0079 | no significant activity | no significant activity
